Measured values reported in the supplement of paper PMC10307832.

Experiments:
Assay in all cases: relative viability (nuclei count vs DMSO), 5 days (fraction); higher = more cells survive
[1] = compound: COc1cc2nc(N3CCCN(C)CC3)nc(NC3CCN(Cc4ccccc4)CC3)c2cc1OC + CC1(C)CCC(c2ccc(Cl)cc2)=C(CN2CCN(c3ccc(C(=O)NS(=O)(=O)c4ccc(N[C@H](CCN5CCOCC5)CSc5ccccc5)c(S(=O)(=O)C(F)(F)F)c4)cc3)CC2)C1 [Navitoclax] (partner 0.5 µM)
Summary of the method: (§1)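 For relative viability, nuclei counts in treated wells were divided by those in vehicle wells. Lung cancer cell lines had been pin-tool dosed in 1536-well plates the day after seeding and cultured for 5 days, then fixed and stained in one step (final 0.05% Triton X-100, 1% formaldehyde, 1 ug/ml Hoechst) and imaged at 4×. Doses were one drug alone or a fixed anchor-drug dose plus five library-drug doses (not always all listed) in √10 steps, and values are duplicate-plate medians.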

AZD6482 = compound: Cc1cc([C@@H](C)Nc2ccccc2C(=O)O)c2nc(N3CCOCC3)cc(=O)n2c1 [AZD6482]
Summary of the method: (§2)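 Only plates meeting two conditions passed: control CV below 25% and at least one doubling. Lung cancer cell lines, kept overnight at 37 °C in 1536-well plates, were pinned with five library-drug doses (not always all listed) √10 apart on vehicle-anchored plates and grown 5 days without medium change. A one-step fix, permeabilisation and Hoechst stain preceded 4× imaging and MetaXpress nuclear counting. Viability equals treated-well nuclei divided by vehicle-well nuclei, as the median over plates.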

[2] = compound: COc1cc2nc(N3CCCN(C)CC3)nc(NC3CCN(Cc4ccccc4)CC3)c2cc1OC
Summary of the method: as §2

[3] = compound: COc1cc2nc(N3CCCN(C)CC3)nc(NC3CCN(Cc4ccccc4)CC3)c2cc1OC + COc1cc2c(Oc3ccc(NC(=O)C4(C(=O)Nc5ccc(F)cc5)CC4)cc3F)ccnc2cc1OCCCN1CCOCC1 [Foretinib] (partner 0.25 µM)
Summary of the method: as §1

Cell Line | relative viability ([1]; first compound 0.2 µM) | relative viability ([1]; first compound 0.6325 µM) | relative viability ([1]; first compound 2 µM) | relative viability ([1]; first compound 6.325 µM) | relative viability (AZD6482; 0.08 µM) | relative viability (AZD6482; 0.253 µM) | relative viability (AZD6482; 0.8 µM) | relative viability (AZD6482; 2.53 µM) | relative viability (AZD6482; 8 µM) | relative viability ([2]; 0.2 µM) | relative viability ([2]; 0.6325 µM) | relative viability ([2]; 2 µM) | relative viability ([2]; 6.325 µM) | relative viability ([3]; first compound 0.2 µM) | relative viability ([3]; first compound 0.6325 µM) | relative viability ([3]; first compound 2 µM) | relative viability ([3]; first compound 6.325 µM)
HCC-44 | 0.908 | 0.968 | 1.02 | 0.945 | 0.873 | 0.971 | 1 | 1.05 | 1.03 | 0.98 | 0.996 | 0.998 | 0.981 |  |  |  | 
HCC-827 | 1.01 | 1.01 | 0.988 | 1.01 | 0.979 | 1.02 | 1.02 | 0.854 | 0.918 | 1.05 | 1.04 | 1 | 1.01 | 1.06 | 1.12 | 1.05 | 1.02
NCI-H1623 |  |  |  |  | 0.899 | 0.947 | 0.955 | 0.76 | 0.632 | 0.933 | 0.965 | 0.979 | 0.966 | 0.903 | 0.94 | 0.848 | 0.768
NCI-H2347 | 0.764 | 0.771 | 0.873 | 0.693 | 0.627 | 0.785 | 0.805 | 0.617 | 0.664 | 1.02 | 0.975 | 1.04 | 1 | 0.791 | 0.834 | 1.02 | 1
PC-14 | 1 | 0.93 | 1.14 | 0.882 | 0.953 | 0.972 | 1.12 | 0.849 | 0.979 | 0.97 | 1.05 | 0.977 | 0.475 | 1.01 | 0.959 | 0.939 | 0.885
NCI-H1651 | 1.14 | 1.02 | 1.42 | 1.03 | 0.897 | 0.932 | 0.93 | 0.814 | 0.815 | 0.974 | 0.983 | 1.02 | 1.03 | 0.85 | 0.688 | 0.934 | 0.807
HARA | 1.13 | 1.08 | 1.24 | 1.15 | 0.844 | 0.978 | 1.13 | 0.782 | 0.875 | 0.895 | 1.13 | 1.08 | 0.919 | 0.973 | 0.9 | 0.92 | 0.92
NCI-H1650 | 1.25 | 1.07 | 1.48 | 1.07 | 0.839 | 0.854 | 0.778 | 0.719 | 0.862 | 0.863 | 1.03 | 0.924 | 0.835 | 1.11 | 1.06 | 1.31 | 0.755
NCI-H1395 | 1.18 | 1.32 | 1.17 | 1.05 | 0.742 | 0.539 | 0.697 | 0.443 | 0.527 | 0.925 | 1.09 | 0.976 | 0.787 | 0.895 | 1 | 0.93 | 0.858
NCI-H1563 |  |  |  |  | 0.829 | 0.852 | 0.906 | 0.763 | 0.722 | 0.974 | 0.963 | 0.967 | 0.966 | 1.03 | 0.944 | 0.973 | 0.824
ABC-1 |  |  |  |  | 0.953 | 0.897 | 0.97 | 0.849 | 0.713 | 0.924 | 1.12 | 1 | 0.926 | 1.04 | 1.35 | 1.32 | 0.996
NCI-H522 |  |  |  |  | 0.959 | 0.789 | 0.981 | 0.926 | 0.768 | 0.987 | 1.01 | 0.936 | 1.02 |  |  |  | 
SW 900 |  |  |  |  | 0.675 | 0.683 | 0.691 | 0.486 | 0.778 | 0.81 | 1.03 | 0.89 | 0.752 | 0.679 | 1.15 | 0.779 | 0.857
NCI-H1792 | 0.665 | 0.639 | 0.66 | 0.629 | 0.753 | 0.758 | 0.878 | 0.412 | 0.496 | 0.821 | 1.06 | 0.952 | 1.11 |  |  |  | 
LCLC-103H |  |  |  |  | 0.875 | 1.04 | 0.948 | 0.655 | 0.575 | 0.992 | 1.03 | 1.1 | 0.978 | 0.826 | 0.857 | 0.825 | 0.772
NCI-H358 |  |  |  |  | 0.856 | 0.86 | 0.92 | 0.468 | 0.489 | 0.918 | 1.03 | 0.939 | 0.684 | 0.701 | 0.824 | 0.81 | 0.566
NCI-H1648 |  |  |  |  | 0.888 | 0.863 | 0.954 | 0.519 | 0.599 | 0.713 | 0.798 | 0.757 | 1.13 |  |  |  | 
NCI-H2342 |  |  |  |  | 0.892 | 0.87 | 0.92 | 0.653 | 0.688 | 1.02 | 0.887 | 0.956 | 0.995 | 1.1 | 1 | 1.17 | 1.1
NCI-H650 |  |  |  |  | 1.07 |  | 0.92 | 0.653 | 0.685 | 0.973 | 0.935 | 1.09 | 0.862 | 1.06 | 0.948 | 1.12 | 0.965
NCI-H661 |  |  |  |  | 0.981 | 0.98 | 0.973 | 0.671 | 0.851 | 0.978 | 0.987 | 1 | 1.01 | 1.04 | 0.972 | 1.06 | 0.995
